According to US4581355A, “3-indolecarboxamides for control of circulatory diseases” (Yoshitomi Pharmaceutical Industries, Ltd., priority 1983, dated 1986):
Each block holds one compound with its values, some of them ahead of it.

Experiments:
[1] = tested on: central nervous system; experiment: sedative activity by electroencephalograms in rabbits; assay type: in vivo; conditions: from the intraperitoneal dose of 3 mg/kg
[2] = tested on: mice; experiment: acute toxicity in male mice; assay type: in vivo; conditions: observed for 5 days
Excerpt: The acute toxicity of the compounds of the present invention was studied in 5 male mice weighing 30 to 45 g.

[3] = tested on: left ventricular pressure max dP/dt; experiment: cardiotonic activity (max dP/dt) in anesthetized dogs; assay type: in vivo; conditions: injected into left coronary artery
Method: The experiment on cardiotonic activity of the compounds of the present invention was conducted as follows: Dogs were anesthetized with sodium pentobarbital and heparin was administered intraveneously. The left venticular pressure and its max dP/dt were measured. Test compounds were injected at a volume of 10 to 30 μl into a catheter inserted into left coronary artery. The effects of test compounds on max dP/dt were shown as ED30, a dose required to increase max dP/dt by 30% of the effects of 0.1 μg is isoproterenol.

[4] = biological target: 5-lipoxygenase; experiment: 5-lipoxygenase inhibition (method of Yoshimoto et al.); assay type: biochemical; conditions: read-out: 50% inhibitory concentration on 5-lipoxygenase
Excerpt: According to the pharmacological experiment conducted by the method of Yoshimoto et al. which is described in Biochem. Biophys. Res. Commum., vol. 107, p.

SMILES: O=C(NC1CCN(CCc2c[nH]c3ccccc23)CC1)c1ccccc1 [indoramin, 3-[2-(4-benzamido-1-piperidyl)ethyl]indole, reference compound]
changes on electroencephalograms (sedative activity) [1]: trend toward slow wave
mortality ([2]; oral 500 mg/kg): all mice died

IC50 [4]: 0.18 µM
SMILES: Cc1[nH]c2ccc(O)cc2c1C(=O)NC1CCN(CCCc2ccccc2)CC1 [Example 3, 5-hydroxy-2-methyl-N-[1-(3-phenylpropyl)-4-piperidyl]indole-3-carboxamide]
ED30, dose required to increase max dP/dt by 30% of the effects of 0.1 μg isoproterenol [3]: 50 µg

SMILES: C[C@@H]1O[C@@H](O[C@H]2C[C@@H](O)[C@]3(CO)[C@H]4[C@H](O)C[C@]5(C)[C@@H](C6=CC(=O)OC6)CC[C@]5(O)[C@@H]4CC[C@]3(O)C2)[C@H](O)[C@H](O)[C@H]1O [ouabain, reference compound]
ED30, dose required to increase max dP/dt by 30% of the effects of 0.1 μg isoproterenol [3]: 60 µg

SMILES: Cc1[nH]c2ccc(O)cc2c1C(=O)NC1CCN(CCc2ccccc2)CC1 [Example 2, 5-hydroxy-2-methyl-N-[1-(2-phenylethyl)-4-piperidyl]indole-3-carboxamide]
IC50 [4]: 0.44 µM
mortality ([2]; oral 1000 mg/kg): All animals survived

SMILES: Cc1[nH]c2ccc(O)cc2c1C(=O)NC1CCN(CCCc2ccc(O)cc2)CC1 [Example 35, 5-Hydroxy-2-methyl-N-[1-(3-(p-hydroxyphenyl)propyl)-4-piperidyl]indole-3-carboxamide]
ED30, dose required to increase max dP/dt by 30% of the effects of 0.1 μg isoproterenol [3]: 36 µg
